Test results reported in ChEMBL document CHEMBL1158599, “(2S,4S)-1-[2-(1,1-dimethyl-3-oxo-3-pyrrolidin-1-yl-propylamino)acetyl]-4-fluoro-pyrrolidine-2-carbonitrile: a potent, selective, and orally bioavailable dipeptide-derived inhibitor of dipeptidyl peptidase IV” (Bioorg Med Chem Lett, 2010).

Key:
Dipeptidyl peptidase 4 [1] = target: T1, Dipeptidyl peptidase 4 (Homo sapiens, UniProt P27487)
Dipeptidyl peptidase 8 = Dipeptidyl peptidase 8 (Homo sapiens, UniProt Q6V1X1)
Dipeptidyl peptidase 9 [2] = target: T2, Dipeptidyl peptidase 9 (Homo sapiens, UniProt Q86TI2); assay: Inhibition of DPP9
Target sequence in this assay (Q86TI2 whole entry): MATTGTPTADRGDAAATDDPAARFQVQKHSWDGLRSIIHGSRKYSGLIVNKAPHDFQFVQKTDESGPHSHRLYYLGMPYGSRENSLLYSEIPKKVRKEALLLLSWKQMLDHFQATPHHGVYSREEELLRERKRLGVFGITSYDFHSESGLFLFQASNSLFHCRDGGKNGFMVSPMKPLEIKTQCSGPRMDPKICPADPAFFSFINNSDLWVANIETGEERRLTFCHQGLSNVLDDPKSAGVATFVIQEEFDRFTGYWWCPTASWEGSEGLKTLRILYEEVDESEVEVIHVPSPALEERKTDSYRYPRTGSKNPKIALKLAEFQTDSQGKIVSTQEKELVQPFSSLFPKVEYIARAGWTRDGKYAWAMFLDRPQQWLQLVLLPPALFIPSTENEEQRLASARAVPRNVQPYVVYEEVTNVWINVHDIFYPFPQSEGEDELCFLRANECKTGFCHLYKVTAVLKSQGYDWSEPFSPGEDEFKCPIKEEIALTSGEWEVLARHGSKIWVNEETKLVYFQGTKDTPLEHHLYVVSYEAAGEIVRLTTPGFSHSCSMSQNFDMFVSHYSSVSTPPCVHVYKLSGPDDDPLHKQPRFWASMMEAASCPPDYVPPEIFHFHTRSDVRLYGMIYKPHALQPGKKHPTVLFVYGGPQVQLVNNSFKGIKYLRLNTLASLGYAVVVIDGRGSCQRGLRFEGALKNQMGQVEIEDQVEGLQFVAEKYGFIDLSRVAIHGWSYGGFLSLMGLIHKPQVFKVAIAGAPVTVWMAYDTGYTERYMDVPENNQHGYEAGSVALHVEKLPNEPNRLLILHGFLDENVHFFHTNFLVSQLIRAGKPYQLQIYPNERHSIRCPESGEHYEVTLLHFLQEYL

Mus musculus = species: Mus musculus; assay: animal or person; conditions: Plasma, po, 4 h, read-out: INH
Rattus norvegicus [3] = species: Rattus norvegicus; assay: animal or person; conditions: Plasma, po, 8 h, read-out: INH
Rattus norvegicus [4] = species: Rattus norvegicus; assay: animal or person; conditions: Plasma, po, 0.5 h, read-out: INH
Dipeptidyl peptidase 9 [5] = target: T2, Dipeptidyl peptidase 9; assay: Inhibition of DPP9 at 20 uM
Target sequence in this assay (Q86TI2 2-863 limits assumed): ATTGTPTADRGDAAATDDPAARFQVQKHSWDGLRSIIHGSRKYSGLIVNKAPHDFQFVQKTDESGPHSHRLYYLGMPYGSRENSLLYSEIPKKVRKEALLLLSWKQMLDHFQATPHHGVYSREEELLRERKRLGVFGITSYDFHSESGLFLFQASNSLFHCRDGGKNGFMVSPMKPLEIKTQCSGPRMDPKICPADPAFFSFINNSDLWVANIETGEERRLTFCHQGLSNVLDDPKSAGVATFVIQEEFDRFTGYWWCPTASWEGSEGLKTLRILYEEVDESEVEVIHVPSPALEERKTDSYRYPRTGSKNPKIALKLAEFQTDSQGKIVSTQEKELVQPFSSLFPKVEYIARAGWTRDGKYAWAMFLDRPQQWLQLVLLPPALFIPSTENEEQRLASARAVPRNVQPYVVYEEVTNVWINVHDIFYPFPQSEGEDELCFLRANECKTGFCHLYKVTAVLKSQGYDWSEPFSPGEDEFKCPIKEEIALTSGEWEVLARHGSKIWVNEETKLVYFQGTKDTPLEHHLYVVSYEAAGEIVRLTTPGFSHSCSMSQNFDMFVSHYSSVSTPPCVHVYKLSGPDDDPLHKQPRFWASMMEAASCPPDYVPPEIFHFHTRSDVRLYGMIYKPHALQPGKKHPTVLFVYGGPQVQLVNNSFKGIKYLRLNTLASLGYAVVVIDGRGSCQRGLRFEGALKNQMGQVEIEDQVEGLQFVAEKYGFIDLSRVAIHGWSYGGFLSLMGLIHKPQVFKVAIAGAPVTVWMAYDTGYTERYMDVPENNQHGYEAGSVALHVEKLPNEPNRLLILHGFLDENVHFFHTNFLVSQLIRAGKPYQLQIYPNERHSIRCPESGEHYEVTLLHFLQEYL

Dipeptidyl peptidase 4 [6] = target: T1, Dipeptidyl peptidase 4; remark: listed apart in the source
Dipeptidyl peptidase 4 [7] = target: T1, Dipeptidyl peptidase 4; remark: listed apart in the source

T1 sequence (P27487 whole entry): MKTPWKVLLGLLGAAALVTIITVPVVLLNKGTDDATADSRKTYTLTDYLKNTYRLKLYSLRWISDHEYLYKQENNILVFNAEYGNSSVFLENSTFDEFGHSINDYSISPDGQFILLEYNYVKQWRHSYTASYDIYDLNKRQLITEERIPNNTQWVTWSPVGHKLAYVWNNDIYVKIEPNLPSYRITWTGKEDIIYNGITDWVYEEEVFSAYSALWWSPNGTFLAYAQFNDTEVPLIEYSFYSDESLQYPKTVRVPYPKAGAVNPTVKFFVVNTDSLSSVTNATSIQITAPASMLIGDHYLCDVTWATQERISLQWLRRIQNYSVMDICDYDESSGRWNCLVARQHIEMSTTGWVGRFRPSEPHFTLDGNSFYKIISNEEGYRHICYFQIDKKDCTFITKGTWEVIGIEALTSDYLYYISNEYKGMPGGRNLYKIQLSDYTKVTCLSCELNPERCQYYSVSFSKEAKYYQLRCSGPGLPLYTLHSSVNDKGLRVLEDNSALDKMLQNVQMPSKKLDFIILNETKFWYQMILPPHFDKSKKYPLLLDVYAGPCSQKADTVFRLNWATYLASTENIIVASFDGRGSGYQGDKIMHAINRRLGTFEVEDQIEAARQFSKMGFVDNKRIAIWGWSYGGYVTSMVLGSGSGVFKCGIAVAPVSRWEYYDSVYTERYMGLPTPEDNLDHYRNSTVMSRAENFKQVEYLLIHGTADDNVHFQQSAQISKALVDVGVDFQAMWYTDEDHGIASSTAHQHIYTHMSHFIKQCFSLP
Sequence of Dipeptidyl peptidase 8 (Q6V1X1 whole entry): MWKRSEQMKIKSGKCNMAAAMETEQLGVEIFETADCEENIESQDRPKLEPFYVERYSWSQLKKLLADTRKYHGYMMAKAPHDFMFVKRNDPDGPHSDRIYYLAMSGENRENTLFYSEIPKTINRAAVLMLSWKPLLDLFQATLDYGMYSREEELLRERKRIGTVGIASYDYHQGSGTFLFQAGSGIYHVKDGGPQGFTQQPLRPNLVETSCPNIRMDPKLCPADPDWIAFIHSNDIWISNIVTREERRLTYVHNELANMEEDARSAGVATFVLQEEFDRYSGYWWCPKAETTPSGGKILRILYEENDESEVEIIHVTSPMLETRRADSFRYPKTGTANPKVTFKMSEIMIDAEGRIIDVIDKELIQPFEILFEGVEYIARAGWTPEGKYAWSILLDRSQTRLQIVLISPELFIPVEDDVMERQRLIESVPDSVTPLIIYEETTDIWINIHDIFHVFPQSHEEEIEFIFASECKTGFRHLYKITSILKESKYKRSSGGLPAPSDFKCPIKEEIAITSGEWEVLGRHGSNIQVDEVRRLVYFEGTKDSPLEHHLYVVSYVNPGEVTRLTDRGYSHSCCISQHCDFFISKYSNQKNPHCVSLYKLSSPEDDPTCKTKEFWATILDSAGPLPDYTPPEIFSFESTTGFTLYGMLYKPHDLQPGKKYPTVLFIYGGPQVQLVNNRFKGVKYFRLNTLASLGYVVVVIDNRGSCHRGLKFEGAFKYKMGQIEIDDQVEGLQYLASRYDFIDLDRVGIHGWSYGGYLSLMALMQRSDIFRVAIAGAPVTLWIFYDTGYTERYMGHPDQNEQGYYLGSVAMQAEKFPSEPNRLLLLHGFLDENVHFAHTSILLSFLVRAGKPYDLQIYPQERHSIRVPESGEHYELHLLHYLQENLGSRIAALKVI

Structure (SMILES) | IC50 (Dipeptidyl peptidase 8) | IC50 (Dipeptidyl peptidase 4 [1]) | IC50 (Dipeptidyl peptidase 9 [2]) | inhibition in vivo at 18 mg/kg (Mus musculus) | inhibition in vivo at 3 mg/kg (Rattus norvegicus [3]) | inhibition in vivo at 3 mg/kg (Rattus norvegicus [4]) | inhibition (Dipeptidyl peptidase 9 [5]) | IC50 (Dipeptidyl peptidase 4 [6]) | IC50 (Dipeptidyl peptidase 4 [7])
CC(C)(CC(=O)N1CC[C@@H](O)C1)NCC(=O)N1CCC[C@H]1C#N | > 20 µM | 180 nM | > 20 µM |  |  |  |  |  | 
CC(C)(CC(=O)N1Cc2ccccc2C1)NCC(=O)N1CCC[C@H]1C#N |  |  | > 100 µM | > 80% |  |  |  |  | 
C[C@@H]1CCCN1C(=O)CC(C)(C)NCC(=O)N1C[C@@H](F)C[C@H]1C#N | > 20 µM | 32 nM | > 20 µM |  | 48% | 75% |  |  | 
CC(C)(CC(=O)NC1CCCC1)NCC(=O)N1C[C@@H](F)C[C@H]1C#N | > 20 µM | 29 nM | > 20 µM |  | 60% | 81% |  |  | 
CC(C)(CC(=O)N1CCCC1)NCC(=O)N1CCC[C@H]1C#N | > 20 µM |  | > 20 µM |  |  |  |  |  | 
CCOC(=O)N1CCN(C(=O)CC(C)(C)NCC(=O)N2C[C@@H](F)C[C@H]2C#N)CC1 | > 20 µM | 63 nM | > 20 µM |  |  |  |  |  | 
CC(C)(CC(=O)N1CCCCC1)NCC(=O)N1C[C@@H](F)C[C@H]1C#N | > 20 µM | 27 nM | > 20 µM |  | 74% | 86% |  | 14 nM | 
CC(C)(CC(=O)Nc1ccccn1)NCC(=O)N1C[C@@H](F)C[C@H]1C#N | > 20 µM | 19 nM | > 20 µM |  | 31% | 87% |  | 19 nM | 24 nM
CC(C)(CC(=O)N1CCN(S(C)(=O)=O)CC1)NCC(=O)N1C[C@@H](F)C[C@H]1C#N | > 20 µM | 24 nM | > 20 µM |  | 7% | 64% |  | 15 nM | 
CC(C)(CC(=O)N1CC=CCC1)NCC(=O)N1C[C@@H](F)C[C@H]1C#N | > 20 µM | 18 nM |  |  | 70% | 85% | 50% |  | 

More lines, main results first:

IC50 (Dipeptidyl peptidase 8) | Structure (SMILES) | IC50 (Dipeptidyl peptidase 4 [1]) | IC50 (Dipeptidyl peptidase 9 [2]) | inhibition in vivo at 18 mg/kg (Mus musculus) | inhibition in vivo at 3 mg/kg (Rattus norvegicus [3]) | inhibition in vivo at 3 mg/kg (Rattus norvegicus [4]) | inhibition (Dipeptidyl peptidase 9 [5]) | IC50 (Dipeptidyl peptidase 4 [6]) | IC50 (Dipeptidyl peptidase 4 [7])
> 20 µM | CC(C)(CC(=O)N1CC[C@@H](F)C1)NCC(=O)N1C[C@@H](F)C[C@H]1C#N |  | > 20 µM |  |  |  |  |  | 
> 20 µM | CC(C)(CC(=O)N1CCC[C@H]1CO)NCC(=O)N1C[C@@H](F)C[C@H]1C#N | 24 nM | > 20 µM |  |  |  |  |  | 
> 20 µM | CC(C)(CC(=O)N1CCCCCC1)NCC(=O)N1C[C@@H](F)C[C@H]1C#N | 160 nM | > 20 µM |  |  |  |  |  | 
> 20 µM | CN1CCN(C(=O)CC(C)(C)NCC(=O)N2C[C@@H](F)C[C@H]2C#N)CC1 | 93 nM |  |  |  |  | 86% |  | 
